Where a SMILES comes first, the peptide text is derived from it. Bridges are numbered along the chain shown (N, C = ends). [ ]: non-standard residue; d: D form. Arg(NO2) = N=C(NCCC[C@H](N)C(=O)O)N[N+](=O)[O-]
Key:
human MCH-1R [1] = target: T1, human MCH-1R (Homo sapiens, UniProt Q99705); assay: Aequorin bioluminescence functional assay, MCH-1R; settings: for MCH-1R Activation %: % Activation at 10 μM, aequorin functional assay
Procedure: The aequorin bioluminescence assay can be used to measure the activity of G protein-coupled receptors that couple through the Gα protein subunit family consisting of Gq and G11. Such coupling leads to phospholipase C activation, intracellular calcium mobilization and protein kinase C activation.
Following approximately 40 hours of expression the apo-aequorin in the cells was charged for 4 hours with coelenterazine (10 μM) under reducing conditions (300 μM reduced glutathione) in ECB buffer (140 mM NaCl, 20 mM KCl, 20 mM HEPES-NaOH [pH=7.4], 5 mM glucose, 1 mM MgCl2, 1 mM CaCl2, 0.1 mg/ml bovine serum albumin).
The cells were harvested, washed once in ECB medium and resuspended to 500,000 cells/ml. 100 μl of cell suspension (corresponding to 5×10^4 cells) was then injected into the test plate containing MCH or MCH analogs, and the integrated light emission was recorded over 30 seconds, in 0.5 second units. 20 μL of lysis buffer (0.1% final Triton X-100 concentration) was then injected and the integrated light emission recorded over 10 seconds, in 0.5 second units. The “fractional response” values for each well were calculated by taking the ratio of the integrated response to the initial challenge to the total integrated luminescence including the Triton X-100 lysis response.

human MCH-R2 = human MCH-R2 (Homo sapiens, UniProt Q969V1); assay: Aequorin bioluminescence functional assay, MCH-2R; settings: for EC50: MCH-2R EC50 (nM); for EC50 / MCH-2R Activation %: aequorin functional assay; for MCH-2R Activation %: % Activation at 10 μM; for selective activity at MCH-2R over MCH-1R: greater binding and/or activation at MCH-2R than at MCH-1R
Chain of human MCH-R2 (Q969V1 whole entry): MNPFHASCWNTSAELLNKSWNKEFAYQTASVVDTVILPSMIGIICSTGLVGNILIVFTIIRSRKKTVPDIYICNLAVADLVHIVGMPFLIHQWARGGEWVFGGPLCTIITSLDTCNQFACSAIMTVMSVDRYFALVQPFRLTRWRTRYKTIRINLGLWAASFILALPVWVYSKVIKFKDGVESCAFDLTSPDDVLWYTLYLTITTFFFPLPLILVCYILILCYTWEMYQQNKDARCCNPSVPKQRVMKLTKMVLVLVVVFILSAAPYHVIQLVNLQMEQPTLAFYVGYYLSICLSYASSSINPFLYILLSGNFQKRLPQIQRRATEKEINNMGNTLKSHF

human MCH-1R [2] = target: T1, human MCH-1R; assay: Radiolabeled MCH-R binding assay (SPA based), MCH-1R
Procedure: (§1) Cell membranes were prepared on ice. Each T-75 flask was rinsed twice with 10 ml of Enzyme-free Cell Dissociation Buffer (Specialty Media, Lavallette, N.J.), and the cell monolayer was detached in an additional 10 ml of Enzyme-free Cell Dissociation Buffer by incubation at room temperature for 10 minutes. Dissociated cells were centrifuged (500×g for 10 minutes at 4° C.), resuspended in 5 ml homogenization buffer (10 mM Tris-HCl, pH 7.4, 0.01 mM Pefabloc, 10 μM phosphoramidon, 40 μg/ml bacitracin) and then homogenized using a glass homogenizer (10-15 strokes). The homogenate was centrifuged for 10 minutes (1,000×g at 4° C.). The resulting supernatant was then centrifuged at 38,700×g for 15 minutes at 4° C. Pelleted membranes were resuspended (passed through 25 gauge needle 5 times), snap-frozen on liquid nitrogen, and stored at −80° C. until use.
(§2) For the SPA-based assay, WGA-PVT beads (NEN Life Sciences Products) were resuspended in Dulbecco's PBS with calcium and magnesium (500 mg beads in 4 ml PBS). […] The suspension was mixed gently for 20 minutes, 12.3 ml of assay buffer and protease inhibitors were added (final concentration given): 2 μg/ml leupeptin, 10 μM phosphoramidon, 40 μg/ml bacitracin, 5 μg/ml aprotinin, 0.1 mM Pefabloc.
(§3) Coated beads were kept on ice until use. […] Binding reactions were allowed to proceed at room temperature for 3 hours. Quantitation was performed by scintillation counting (TopCount device).

human MCH-2R = human MCH-2R (Homo sapiens, UniProt Q969V1); assay: Radiolabeled MCH-R binding assay (SPA based), MCH-2R; settings: MCH-2R IC50 (nM)
Chain of human MCH-2R (Q969V1 whole entry): as above
Procedure: as §1, §2, §3

T1 sequence (Q99705 whole entry): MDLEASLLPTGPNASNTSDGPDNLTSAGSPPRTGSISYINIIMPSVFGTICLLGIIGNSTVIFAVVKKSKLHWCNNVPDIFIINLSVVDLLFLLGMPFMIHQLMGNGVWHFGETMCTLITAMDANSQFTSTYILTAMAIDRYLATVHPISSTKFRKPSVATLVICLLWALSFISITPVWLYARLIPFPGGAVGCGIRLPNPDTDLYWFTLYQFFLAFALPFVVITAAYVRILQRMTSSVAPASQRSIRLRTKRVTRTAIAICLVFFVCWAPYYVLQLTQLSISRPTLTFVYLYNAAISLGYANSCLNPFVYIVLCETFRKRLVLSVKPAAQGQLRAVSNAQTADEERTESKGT

CSCC[C@@H]1NC(=O)[C@@H](NC(=O)[C@H](CCCNC(=N)N)NC(=O)[C@H](CC(C)C)NC(=O)[C@H](CCSC)NC(=O)[C@H](CC(=O)O)NC(=O)[C@H](Cc2ccccc2)NC(=O)[C@@H](N)CC(=O)O)CSSC[C@@H](C(=O)N[C@@H](Cc2c[nH]c3ccccc23)C(=O)N[C@@H](CCC(N)=O)C(=O)N[C@H](C(=O)O)C(C)C)NC(=O)[C@@H]2CCCN2C(=O)[C@H](C)NC(=O)[C@H](Cc2ccc(O)cc2)NC(=O)[C@H](C(C)C)NC(=O)[C@H](CCCNC(=N)N)NC(=O)CNC(=O)[C@H](CC(C)C)NC1=O [compound 52] (H-DFDMLRCMLGRVYAPCWQV-OH; disulfide 7-16; N-terminus and C-terminus assumed)
MCH-1R Activation % (human MCH-1R [1]; Table 3): 97% | EC50 (human MCH-R2; Table 3): 187 nM | MCH-2R Activation % (human MCH-R2; Table 3): 81% | IC50 (human MCH-1R [2]): 1.4 nM

CSCC[C@H](NC(=O)[C@H](C)NC(=O)[C@H](Cc1ccccc1)NC(=O)[C@@H](N)CC(=O)O)C(=O)N[C@@H](CC(C)C)C(=O)N[C@@H](CCCNC(=N)N)C(=O)N[C@H]1CSSC[C@@H](C(=O)N[C@@H](Cc2c[nH]c3ccccc23)C(=O)N[C@@H](CCC(N)=O)C(=O)N[C@H](C(=O)O)C(C)C)NC(=O)[C@@H]2CCCN2C(=O)[C@H](CCCNC(=N)N)NC(=O)[C@H](Cc2ccc(O)cc2)NC(=O)[C@H](C(C)C)NC(=O)[C@H](CCCNC(=N)N)NC(=O)CNC(=O)[C@H](CC(C)C)NC(=O)[C@H](CCSC)NC1=O [compound 43] (H-DFAMLRCMLGRVYRPCWQV-OH; disulfide 7-16; N-terminus and C-terminus assumed)
MCH-1R Activation % (human MCH-1R [1]; Table 3): 97% | MCH-2R Activation % (human MCH-R2; Table 3): 95% | IC50 (human MCH-1R [2]): 0.5 nM

CSCC[C@@H]1NC(=O)[C@@H](NC(=O)[C@@H](N)CCCNC(=N)N)CSSC[C@@H](C(N)=O)NC(=O)[C@@H]2CCCN2C(=O)[C@H](CCCNC(=N)N)NC(=O)[C@H](Cc2ccc(O)cc2)NC(=O)[C@H](C(C)C)NC(=O)[C@H](CCCNC(=N)N)NC(=O)CNC(=O)[C@H](CC(C)C)NC1=O [compound 39]
EC50 (human MCH-1R [1]): 14 nM | MCH-1R Activation % (human MCH-1R [1]; Table 2): 106% | EC50 (human MCH-R2; Table 2): 11.6 nM | MCH-2R Activation % (human MCH-R2; Table 2): 109% | IC50 (human MCH-1R [2]): 0.13 nM | IC50 (human MCH-2R; Table 2): 11 nM

CSCC[C@@H]1NC(=O)[C@@H](NC(=O)[C@H](CCCNC(=N)N)NC(=O)[C@H](CC(C)C)NC(=O)[C@H](C)NC(=O)[C@H](CC(=O)O)NC(=O)[C@H](Cc2ccccc2)NC(=O)[C@@H](N)CC(=O)O)CSSC[C@@H](C(=O)N[C@@H](Cc2c[nH]c3ccccc23)C(=O)N[C@@H](CCC(N)=O)C(=O)N[C@H](C(=O)O)C(C)C)NC(=O)[C@@H]2CCCN2C(=O)[C@H](CCCNC(=N)N)NC(=O)[C@H](Cc2ccc(O)cc2)NC(=O)[C@H](C(C)C)NC(=O)[C@H](CCCNC(=N)N)NC(=O)CNC(=O)[C@H](CC(C)C)NC1=O [compound 44] (H-DFDALRCMLGRVYRPCWQV-OH; disulfide 7-16; N-terminus and C-terminus assumed)
MCH-1R Activation % (human MCH-1R [1]; Table 3): 97% | MCH-2R Activation % (human MCH-R2; Table 3): 100% | IC50 (human MCH-1R [2]): 0.5 nM

CSCC[C@@H]1NC(=O)[C@@H](NC(=O)[C@H](CCCNC(=N)N)NC(=O)[C@H](CC(C)C)NC(=O)[C@H](CCSC)NC(=O)[C@H](CC(=O)O)NC(=O)[C@H](Cc2ccccc2)NC(=O)[C@@H](N)CC(=O)O)CSSC[C@@H](C(=O)N[C@@H](Cc2ccc(O)cc2)C(=O)N[C@@H](CCC(N)=O)C(=O)N[C@H](C(=O)O)C(C)C)NC(=O)[C@@H]2CCCN2C(=O)[C@H](CCCNC(=N)N)NC(=O)[C@H](Cc2ccccc2)NC(=O)[C@H](C(C)C)NC(=O)[C@H](CCCNC(=N)N)NC(=O)CNC(=O)[C@H](CC(C)C)NC1=O [compound 57] (H-DFDMLRCMLGRVFRPCYQV-OH; disulfide 7-16; N-terminus and C-terminus assumed)
MCH-1R Activation % (human MCH-1R [1]; Table 3): 97% | EC50 (human MCH-R2; Table 3): 1.5 nM | MCH-2R Activation % (human MCH-R2; Table 3): 92% | IC50 (human MCH-1R [2]): 0.6 nM

CC(=O)N[C@@H](CCCNC(=N)N)C(=O)N[C@H]1CSSC[C@@H](C(N)=O)NC(=O)[C@@H]2CCCN2C(=O)[C@H](CCCNC(=N)N)NC(=O)[C@H](Cc2ccc(O)cc2)NC(=O)[C@H](C(C)C)NC(=O)[C@H](CCCNC(=N)N)NC(=O)CNC(=O)[C@H](CC(C)C)NC(=O)[C@H](C)NC1=O [compound 4] (Ac-RCALGRVYRPC-NH2; disulfide 2-11)
MCH-1R Activation % (human MCH-1R [1]; Table 1): 42% | EC50 (human MCH-R2; Table 1, 293-AEQ17 cells): 12 nM | MCH-2R Activation % (human MCH-R2; Table 1): 104% | selective activity at MCH-2R over MCH-1R (human MCH-R2): selectively active | IC50 (human MCH-1R [2]): 15 nM

CSCC[C@@H]1NC(=O)[C@@H](NC(=O)[C@H](CCCNC(=N)N)NC(C)=O)CSSC[C@@H](C(N)=O)NC(=O)[C@@H]2CCCN2C(=O)[C@H](CCCNC(=N)N)NC(=O)[C@H](Cc2ccc(O)cc2)NC(=O)[C@H](C(C)C)NC(=O)[C@H](C)NC(=O)CNC(=O)[C@H](CC(C)C)NC1=O [compound 23] (Ac-RCMLGAVYRPC-NH2; disulfide 2-11)
EC50 (human MCH-1R [1]): > 10000 nM | EC50 (human MCH-R2; Table 1, 293-AEQ17 cells): > 1000 nM | MCH-2R Activation % (human MCH-R2; Table 1): 36% | selective activity at MCH-2R over MCH-1R (human MCH-R2): selectively active | IC50 (human MCH-1R [2]): > 1000 nM

CSCC[C@@H]1NC(=O)[C@@H](NC(=O)[C@H](CCCNC(=N)N)NC(C)=O)CSSC[C@@H](C(N)=O)NC(=O)[C@@H]2CCCN2C(=O)[C@H](CCCNC(=N)N)NC(=O)[C@H](Cc2ccc(O)cc2)NC(=O)[C@H](C(C)C)NC(=O)[C@H](CCCNC(=N)N[N+](=O)[O-])NC(=O)[C@@H](C)NC(=O)[C@H](CC(C)C)NC1=O [compound 37] (Ac-RCML[dA][Arg(NO2)]VYRPC-NH2; disulfide 2-11)
EC50 (human MCH-1R [1]): > 10000 nM | MCH-1R Activation % (human MCH-1R [1]; Table 1): 0.1% | MCH-2R Activation % (human MCH-R2; Table 1): 34% | IC50 (human MCH-1R [2]): > 1000 nM

CSCC[C@@H]1NC(=O)[C@@H](NC(=O)[C@H](CCCNC(=N)N)NC(C)=O)CSSC[C@@H](C(N)=O)NC(=O)[C@@H]2CCCN2C(=O)[C@H](CCCNC(=N)N)NC(=O)[C@H](Cc2ccc(O)cc2)NC(=O)[C@H](C(C)C)NC(=O)[C@H](CCCNC(=N)N)NC(=O)[C@@H](CO)NC(=O)[C@H](CC(C)C)NC1=O [compound 19]
MCH-1R Activation % (human MCH-1R [1]; Table 1): 47% | MCH-2R Activation % (human MCH-R2; Table 1): 113% | selective activity at MCH-2R over MCH-1R (human MCH-R2): selectively active | IC50 (human MCH-1R [2]): 31 nM

CSCC[C@@H]1NC(=O)[C@@H](NC(=O)[C@H](CCCNC(=N)N)NC(=O)[C@H](CC(C)C)NC(=O)[C@H](CCSC)NC(=O)[C@H](CC(=O)O)NC(=O)[C@H](Cc2ccccc2)NC(=O)[C@@H](N)CC(=O)O)CSSC[C@@H](C(=O)N[C@@H](Cc2c[nH]c3ccccc23)C(=O)N[C@@H](CCC(N)=O)C(=O)N[C@H](C(=O)O)C(C)C)NC(=O)[C@@H]2CCCN2C(=O)[C@H](CCCNC(=N)N)NC(=O)[C@H](Cc2ccc(O)cc2)NC(=O)[C@H](C)NC(=O)[C@H](CCCNC(=N)N)NC(=O)CNC(=O)[C@H](CC(C)C)NC1=O [compound 50] (H-DFDMLRCMLGRAYRPCWQV-OH; disulfide 7-16; N-terminus and C-terminus assumed)
MCH-1R Activation % (human MCH-1R [1]; Table 3): 95% | MCH-2R Activation % (human MCH-R2; Table 3): 98% | IC50 (human MCH-1R [2]): 0.9 nM | IC50 (human MCH-2R; Table 3): 25 nM
